Data reported in ChEMBL document CHEMBL1201862, “PubChem BioAssay data set” (2004).
The source made the active and inactive calls. No stated cut-off is given here; in the data, actives have a measured IC50 and inactives only a lower limit.

Target: Envelope glycoprotein gp160 (Human immunodeficiency virus 1, UniProt Q6QLK5)
Assay: cell-free HIV fusion peptide-binding blockers – biochemical, uHTS, fluorescence dequenching, […] (AID 1986)

Envelope glycoprotein gp160, sequence (Q6QLK5 whole entry, the tested form may be a part): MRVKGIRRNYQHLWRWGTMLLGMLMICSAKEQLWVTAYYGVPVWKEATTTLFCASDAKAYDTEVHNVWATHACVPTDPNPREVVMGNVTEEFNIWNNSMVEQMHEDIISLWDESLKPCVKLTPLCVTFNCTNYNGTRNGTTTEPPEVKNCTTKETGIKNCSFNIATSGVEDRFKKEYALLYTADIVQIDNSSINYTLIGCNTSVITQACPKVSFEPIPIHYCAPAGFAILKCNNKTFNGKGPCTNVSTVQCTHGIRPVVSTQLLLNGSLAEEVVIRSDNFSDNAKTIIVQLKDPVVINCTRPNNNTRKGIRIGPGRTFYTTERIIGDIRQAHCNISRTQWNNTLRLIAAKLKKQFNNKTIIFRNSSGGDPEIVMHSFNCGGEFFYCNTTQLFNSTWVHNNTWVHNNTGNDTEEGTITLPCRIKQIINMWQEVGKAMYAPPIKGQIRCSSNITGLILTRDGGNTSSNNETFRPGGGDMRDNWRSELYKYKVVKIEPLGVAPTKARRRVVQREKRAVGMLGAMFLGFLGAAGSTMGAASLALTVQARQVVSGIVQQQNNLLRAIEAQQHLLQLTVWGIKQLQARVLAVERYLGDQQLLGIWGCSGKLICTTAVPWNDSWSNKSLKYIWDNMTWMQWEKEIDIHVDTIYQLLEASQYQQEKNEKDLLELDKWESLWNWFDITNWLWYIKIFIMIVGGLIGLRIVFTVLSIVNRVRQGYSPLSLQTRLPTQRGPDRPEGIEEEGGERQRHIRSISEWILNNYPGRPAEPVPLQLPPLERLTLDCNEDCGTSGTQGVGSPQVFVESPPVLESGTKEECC

**Q.** COc1ccccc1N1N=C(C(=O)c2ccccc2)C2C(=O)N(c3ccc(Br)cc3)C(=O)C21 (stereo not drawn) was tested. Which IC50 did it give?
**A.** 14.6 µM (active)

**Q.** For Cc1ccc(NS(=O)(=O)c2ccc(N/N=C/c3ccccc3OCC(=O)O)c([N+](=O)[O-])c2)c(C)c1, which IC50 is on record?
**A.** 13.8 µM (active)

**Q.** For COc1cc(/C=C2\S/C(=N\c3ccccc3)N(CCc3c[nH]c4ccccc34)C2=O)ccc1OC(C)C(=O)O (stereo not drawn), which IC50 is on record?
**A.** 16.9 µM (active)
